Several values for one entry are separate records, joined by “and”; a condition that tells them apart may be missing. Identical values can stand only once.
B1: TRAIL: cytotoxic protein which induces apoptosis in tumor cells, but not in normal cells (protein, UniProt P50591 1-281, looked up)
Tumor necrosis factor ligand …: MAMMEVQGGPSLGQTCVLIVIFTVLLQSLCVAVTYVYFTNELKQMQDKYSKSGIACFLKEDDSYWDPNDEESMNSPCWQVKWQLRQLVRKMILRTSEETISTVQEKQQNISPLVRERGPQRVAAHITGTRGRSNTLSSPNSKNEKALGRKINSWESSRSGHSFLSNLHLRNGELVIHEKGFYYIYSQTYFRFQEEIKENTKNDKQMVQYIYKYTSYPDPILLMKSARNSCWSKDAEYGLYSIYQGGIFELKENDRIFVSVTNEHLIDMDHEASFFGAFLVG

Experiments:
Test in all cases: MTT cell death assay, chemotherapeutic with and without MADD siRNA knockdown
Assay type in all cases: cell-based
[1] = system: HTH7 thyroid cancer cells; conditions: siRNA 10 nM
Protocol: Cells are cultured and maintained at 37° C. in a humidified atmosphere containing 5% CO2 as described above. […] After 12-18 hours (Day 1), cells are transfected with Scramble or MADD siRNA at 10 nM concentration. The sequences of siRNAs (double stranded) used are:
(§1) On Day 4, when cells are properly adhered and retained their shape in 96-well plates, drugs are added. All drugs are diluted in complete media on the same day prior to the addition to the cells. In untreated cells, media is replaced with complete media. Two hundred μl volume of media (with or without drugs) is used for the drug treatment assay. Plates are incubated 24 hours, 48 hours and 72 hours at 37° C. in humidified CO2 incubator.
An MTT assay is performed to determine relative survival after drug treatment as described above. MTT (3-[4,5-Dimethylthiazol-2-yl]-2,5-diphenyltetrazolium bromide; Thiazolyl blue) is purchased from Sigma Aldrich (Cat number: M5655). […] Ten μl of MTT solution is added per well of 96-well plate. Plates are incubated for 2 hours at 37° C. in the humidified CO2 incubator. After 2 hours, media is aspirated using vacuum inside the biosafety hood. Purple colored crystals formed in viable cells are dissolved by adding 100 μl of Dimethyl sulfoxide (Thermo Fisher Scientific; Cat number D128-500) Plates are kept on shaker for 10 minutes for compete dissolution of crystals and absorbance is recorded at 595 nm using Bio-Rad iMark microplate reader. Data is analyzed in MICROSOFT EXCEL® software. Relative survival is calculated with respect to absorbance of control (untreated cells) to determine the effect of transfection as well as combination treatment.
(§2) Each data set takes into account any spontaneous cell death which is observed upon transfection with Scramble siRNA; the amount of spontaneous cell death from Scramble siRNA transfection (baseline) is subtracted from the amount of cell death observed in each siRNA transfection reaction to yield a Net Percent (Net %) cell death after accounting for Scrambled siRNA-induced cell death.

[2] = system: HCT116 colon cancer cells; conditions: TRAIL 50 ng/ml, siRNA 10 nM, 48 hours post TRAIL treatment
Protocol: (§3) Cells are cultured and maintained at 37° C. in a humidified atmosphere containing 5% CO2 as described above. On Day 0, Cells are seeded in […] tissue culture dishes (Corning; Cat Number: 353003) to attain 60-70% confluence. In parallel, cells are also seeded in one 96-well plate (Corning; Cat number: 353072) for analysis of survival before reseeding. After 12-18 hours (Day 1), cells are transfected with Scramble or MADD siRNA at 10 nM concentration. The sequences of siRNAs (double stranded) used are:
as §1, with “24 h,” for “24 hours,”, “48 h” for “48 hours”
(§4) An MTT assay is performed to determine relative survival after drug treatment as described above. MTT (3-[4,5-Dimethylthiazol-2-yl]-2,5-diphenyltetrazolium bromide; Thiazolyl blue) is purchased from Sigma Aldrich (Cat number: M5655). MTT is dissolved in sterile DPBS at the concentration of 5 mg/ml and filtered through […] syringe filter (Corning; Cat number: 431220). Ten μl of MTT solution is added per well of 96-well plate. Plates are incubated for 2 hours at 37° C. in the humidified CO2 incubator. After 2 hours, media is aspirated using vacuum inside the biosafety hood. Purple colored crystals formed in viable cells are dissolved by adding 100 μl of Dimethyl sulfoxide (Thermo Fisher Scientific; Cat number D128-500) Plates are kept on shaker for 10 minutes for compete dissolution of crystals and absorbance is recorded at 595 nm using Bio-Rad iMark microplate reader. Data is analyzed in MICROSOFT EXCEL® software. Relative survival is calculated with respect to absorbance of control (untreated cells) to determine the effect of transfection as well as combination treatment.
as §2

[3] = system: JIMT1 breast cancer cells; conditions: Doxorubicin 0.075 μM, siRNA 10 nM, 24 hours post Doxorubicin treatment
Protocol: as §3
as §1, with “added. Doxorubicin was added at a working concentration of 5.0 nM, 9.375 nM, 0.075 μM, 0.25 μM, 0.5 μM, and 0.8 μM.” for “added.”
as §4, with “D128-500).” for “D128-500)”
as §2

[4] = system: N87 gastric carcinoma cells; conditions: Doxorubicin 0.8 μM, siRNA 10 nM, 72 hours post Doxorubicin treatment
Protocol: as §3
as §1, with “added. Doxorubicin was added at a working concentration of 5.0 nM, 9.375 nM, 0.075 μM, 0.25 μM, 0.5 μM, and 0.8 μM.” for “added.”
as §4, with “D128-500).” for “D128-500)”
as §2

[5] = Cisplatin 1.25 μM, 72 hours post Cisplatin treatment
[6] = Cisplatin 5 μM, 24 hours post Cisplatin treatment

Row | Molecule | Net % cell death after accounting for Scrambled siRNA [1, 5] | Observed % Cell death [1, 5] [%] | Net % cell death after accounting for Scrambled siRNA [1, 6] | Observed % Cell death [1, 6] [%] | Net % cell death after accounting for Scrambled siRNA [2] | Observed % Cell death [2] [%] | Net % cell death after accounting for Scrambled siRNA [3] | Observed % Cell death [3] [%] | Net % cell death after accounting for Scrambled siRNA [4] | Observed % Cell death [4] [%]
1 | Scrambled siRNA: non-specific Scramble siRNA, negative control; SEQ ID NO: 5, 5′-UUGCUAAGCGUCGGUCAAUTT-3′ (chemistry not given here) | 0 − 0 = 0% | 0 | 0 − 0 = 0% | 0 | 27 − 27 = 0% | 27 | 33 − 33 = 0% | 33 | 14 − 14 = 0% | 14
2 | MADD siRNA: siRNA targeting exon 13L of the MADD splice variant of the IG20 gene; SEQ ID NO: 4, 5′-GAUUGUCAUAGAUUCGCCGTT-3′ (chemistry not given here) | 54% and 54 − 0 = 54% | 54 | 6% and 6 − 0 = 6% | 6 | – | 43 | – | 59 | – | 21
3 | B1 | – | – | – | – | 27% | 27 | – | – | – | –

Reference: patent US11273172B2, “Synergistic combination of oligonucleotides and chemotherapeutic for treating cancer” (THE BOARD OF TRUSTEES OF THE UNIVERSITY OF ILLINOIS, priority 2017, dated 2022)
